Measured values taken from patent publication US20200171056A1, “SULFONYLUREA COMPOUNDS IN THE TREATMENT OF DISEASE ASSOCIATED WITH UV-INDUCED DAMAGE” (CeMM - Forschungszentrum für Molekulare Medizin GmbH, priority 2017, published 2020).

Experiments:
Type in all cases: cell-based, human
[1] = system: XPA^Δ/Δ patient-derived cells; test: Colony formation of XPA patient-derived fibroblasts after UV irradiation; details: 0.5 mM acetohexamide for 6 hours, then UV; 10 days (FIG. 2B)
Procedure: (§1) A. Dose-response curve of WT and ΔXPA cells treated with or without 0.5 mM acetohexamide for 6 hours, followed by illudin S treatment. Survival was assessed after 3 days using CellTiter-Glo. B. Colony formation of WT fibroblasts (BJ) and XPA-patient derived fibroblasts (XPA^Δ/Δ) treated with or without 0.5 mM acetohexamide for 6 hours, followed by UV irradiation (as indicated) and then kept in culture for 10 days. C. WT BJ and XPA^Δ/Δ fibroblastoid cells were treated with 0.5 mM acetohexamide for 6 hours, irradiated with 15 J/M^2 and then fixed and immunostained with an anti-cyclobutane pyrimidine dimer (CPD) antibody at the indicated times. Nuclear DNA was counterstained with DAPI. Scale bar, 10 μm. D. Scatter plot displaying the quantification of CPD intensities per nucleus of WT and XPA^Δ/Δ cells in the presence or absence of 0.5 mM acetohexamide, of more than 100 cells. Red lines within each column represent median intensities. A.u.=arbitrary unit.
HAP1 cells were cultured in Iscove's Modified Dulbecco's Medium (Gibco). […]
Cells were treated with UV at different doses with or without drug pre-treatment and then seeded into 6-well plates, at a density of 1,000 cells/well, in duplicates for 2 weeks until visible colonies were formed. […] Next, the staining solution was removed and the wells were washed, imaged and quantified using CellProfiler.

CPDs in XPA^Δ/Δ cells = test: Immunofluorescence for cyclobutane pyrimidine dimers; details: 0.5 mM for 6 hours
Procedure: as §1
For measurement of cyclobutane pyrimidine dimers (CPDs), cells were seeded onto coverslips (VWR) in 5 cm dishes. On the following day, cells were treated as indicated. Next, they were washed twice with PBS and fixed with 4% paraformaldehyde (PFA) for 10 minutes at room temperature (RT), then permeabilized with 0.5% Triton X-100 in PBS for 5 minntes at RT. […] Quantification was performed using CellProfiler.

[2] = system: DNA repair knockout HAP1 cell lines; test: Percentage of rescue in panel of 20 DNA repair-deficient cell lines after UV
From the text: FIG. 3. Loss of MUTYH mimics acetohexamide function A. Bubble plot displaying the percentage of rescue, defined as the difference in survival of a given cell line treated with acetohexamide compared to untreated, following UV irradiation. The light grey, dark grey bubbles highlight ΔMUTYH, ΔXPA […], and black bubbles indicate the rest of the knockout cell lines and WT HAP1. The size of the bubbles indicates the significance as log10 (p-value). BER: base excision repair; NER: nucleotide excision repair; DSBR; double-strand break repair; MMR: mis-match repair; FA: Fanconi aneamia; DR; direct reversal; TLS; translesion synthesis. B. Survival of WT and MUTYH-deficient (ΔMUTYH) cells with or without 0.5 mM acetohexamide treatment, followed by UV irradiation, as assessed after 3 days using CellTitre-Glo. Loss of MUTYH protein was confirmed by immunoblotting using an anti-MUTYH antibody. ACTIN was used as a loading control. C. Deletion of MUTYH in WT HAP1 or an XPA-deficient background was confirmed by immunoblotting using an anti-MUTYH antibody. TUBULIN was used as a loading control. D. Clonogenic survival of WT, ΔXPA or ΔXPA-MUTYH cells irradiated with UV at the indicated doses or left untreated. Cells were fixed and stained 10 days later.
Since acetohexamide enhanced the clearance of CPDs in NER-deficient cells, it was speculated that its mode-of-action could be via one the known DNA excision repair pathways. Thus, a panel of 20 DNA repair-deficient cell lines was prepared using CRISPR-Cas9, representing all DNA repair pathways. Pol kappa (POLK) was selected to represent translesion synthesis (TLS) polymerases since it has roles in the repair synthesis step of NER. Subsequently, these cell lines (as well as two wildtype controls) were treated with acetohexamide and exposed to UV irradiation (FIG. 3A). […]
The DNA repair knockout cell lines were generated in collaboration with Horizon Genomics. […] Subsequently, the genomic DNA was isolated using Direct PCR-Cell Kit (PeqLab) and the region targeted by the gRNA was PCR amplified and analyzed by Sanger sequencing. […]

CC(=O)c1ccc(S(=O)(=O)NC(=O)NC2CCCCC2)cc1 [acetohexamide]
UV-induced cell death of XPA^Δ/Δ patient-derived cells [1]: could alleviate UV-induced cell death of XPA^Δ/Δ patient-derived cells | initial amount of CPDs (CPDs in XPA^Δ/Δ cells; 15 J/M^2 (FIG. 2C-D)): did not affect the initial amount of CPDs | clearance of CPDs (CPDs in XPA^Δ/Δ cells; XPA^Δ/Δ cells, 15 J/M^2, 24 hours post UV (FIG. 2C-D)): led to the clearance of CPDs in XPA^Δ/Δ cells | protective effect against UV-induced damage (percentage of rescue), knockout cell lines and wildtype ([2]; all knockout lines other than ΔMUTYH (FIG. 3A)): comparable protective effect against UV-induced damage on all the knockout cell lines tested (and also to wildtype cells) | protective effect on NER-deficient cell lines ([2]; knock out cell lines absent of XPA, XPC, ERCC8 (CSA), ERCC6 (CSB) or XPV (POLH)): general protective effect on NER-deficient cell lines | protective effect against UV-induced damage (percentage of rescue), cells lacking MUTYH ([2]; ΔMUTYH (FIG. 3A)): no effect on cells lacking MUTYH
